These results are taken from US11325936B2, “Sialidase inhibitors and preparation thereof” (The Regents of the University of California, priority 2017, dated 2022).

One experiment concerns the target hNEU2 (Homo sapiens, UniProt Q9Y3R4). The experiment is described as follows: Sialidase inhibition assay (Example 4). Format: biochemical. To be noted: pH 5, 0.1 mM of each inhibitor, substrate Neu5Acα2-3GalβpNP 0.3 mM, read-out: Percentage inhibition (%) against hNEU2.
For another experiment, the target named is BiNanH2 (Bifidobacterium longum subsp. infantis, UniProt A0ACD7UU12). The experiment is described as follows: Sialidase inhibition assay (Example 4). Format: biochemical. The following applies: pH 5, read-out: Percentage inhibition (%) against BiNanH2, 0.1 mM of each inhibitor, substrate Neu5Acα2-3GalβpNP 0.3 mM.
A further experiment concerns the target SpNanA (Streptococcus pneumoniae, UniProt P62575). Put plainly: Sialidase inhibition assay (Example 4). The class given is biochemical. To be noted: for inhibition at 100 µM: pH 6, read-out: Percentage inhibition (%) against SpNanA, 0.1 mM of each inhibitor, substrate Neu5Acα2-3GalβpNP 0.3 mM, pH 6.0.
Another experiment concerns the target T1, AuSialidase (Paenarthrobacter ureafaciens, UniProt Q5W7Q2).
T1 sequence (Q5W7Q2 39-990): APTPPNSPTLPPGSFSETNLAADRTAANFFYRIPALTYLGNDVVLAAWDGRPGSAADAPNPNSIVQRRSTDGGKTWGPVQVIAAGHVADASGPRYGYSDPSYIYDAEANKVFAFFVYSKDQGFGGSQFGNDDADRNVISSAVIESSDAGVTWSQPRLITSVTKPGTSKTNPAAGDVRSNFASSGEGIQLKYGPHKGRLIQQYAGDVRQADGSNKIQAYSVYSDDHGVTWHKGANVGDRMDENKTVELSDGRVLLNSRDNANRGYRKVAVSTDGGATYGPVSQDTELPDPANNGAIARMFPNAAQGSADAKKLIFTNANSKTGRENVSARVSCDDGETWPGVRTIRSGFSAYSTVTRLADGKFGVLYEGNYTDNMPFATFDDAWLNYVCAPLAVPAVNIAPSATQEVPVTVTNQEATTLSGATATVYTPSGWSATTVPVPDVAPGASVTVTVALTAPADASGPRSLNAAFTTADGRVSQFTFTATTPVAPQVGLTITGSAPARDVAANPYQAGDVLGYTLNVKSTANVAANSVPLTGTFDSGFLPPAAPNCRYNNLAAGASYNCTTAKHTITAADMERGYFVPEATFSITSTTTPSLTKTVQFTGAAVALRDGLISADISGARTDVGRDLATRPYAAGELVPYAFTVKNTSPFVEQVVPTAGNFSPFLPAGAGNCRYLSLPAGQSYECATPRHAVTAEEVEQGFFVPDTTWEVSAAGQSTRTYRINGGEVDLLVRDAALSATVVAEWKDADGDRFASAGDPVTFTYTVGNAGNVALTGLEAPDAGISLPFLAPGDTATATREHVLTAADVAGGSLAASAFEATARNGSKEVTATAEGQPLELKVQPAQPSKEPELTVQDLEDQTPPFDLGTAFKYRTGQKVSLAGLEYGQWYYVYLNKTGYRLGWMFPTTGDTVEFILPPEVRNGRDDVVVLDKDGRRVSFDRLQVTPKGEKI
Put plainly: Sialidase inhibition assay (Example 4). The class given is biochemical, Arthrobacter ureafaciens. The following applies: pH 5.5, read-out: Percentage inhibition (%) against AuSialidase, 0.1 mM of each inhibitor, substrate Neu5Acα2-3GalβpNP 0.3 mM. As for the experimental part:
(§1) The assay conditions varied for different sialidases as described below: SpNanA (0.0015 μg), NaOAc buffer (100 mM, pH 6.0); SpNanB (0.003 μg), NaOAc buffer (100 mM, pH 6.0); SpNanC (0.02 μg), MES buffer (100 mM, pH 6.5); AuSialidase (1.0 mU), NaOAc buffer (100 mM, pH 5.5); CpNanI (2.0 mU), MES buffer (100 mM, pH 5.0); CpNanH (0.5 mU), MES buffer (100 mM, pH 5.0); VcSialidase (1.5 mU), NaCl (150 mM), CaCl2) (10 mM), NaOAc buffer (100 mM, pH 5.5); PmST1 (34.4 μg), NaOAc buffer (100 mM, pH 5.5); BiNanH2, NaOAc buffer (100 mM, pH 5.0); hNEU2 (22.0 μg), MES buffer (100 mM, pH 5.0). The reactions were incubated for 30 min at 37° C., and were stopped by adding CAPS buffer (N-cyclohexyl-3-aminopropane sulfonic acid, 40 μL, 0.5 M, pH 10.5). The amount of the para-nitrophenolate formed was determined by measuring the A405 nm Of the reaction mixtures using a microplate reader.
(§2) The percentage inhibitions were determined using a concentration of 0.1 mM of each inhibitor, with reactions without inhibitors as controls. […] The values of IC50 were calculated by the software Grafit 5.0.

The target of a further experiment is SpNanC (Streptococcus pneumoniae, UniProt A0A0H2UQE4). The experiment is described as follows: Sialidase inhibition assay (Example 4). Format: biochemical. The following applies: pH 6.5, read-out: Percentage inhibition (%) against SpNanC.
The test system of another experiment is CpNanI. The class given is biochemical, Clostridium perfringens. To be noted: 0.1 mM of each inhibitor; substrate Neu5Acα2-3GalβpNP 0.3 mM; pH 5.0.
The target in a further experiment is SpNanB (Streptococcus pneumoniae serotype 4, UniProt Q54727, E68D/K536E/K577E/N393D/S59P). Put plainly: Sialidase inhibition assay (Example 4). The class given is biochemical. To be noted: pH 6, read-out: Percentage inhibition (%) against SpNanB.
A further experiment addresses CpNanH (Clostridium perfringens, UniProt P10481). Put plainly: biochemical. To be noted: pH 5.0; read-out: Percentage inhibition (%) against CpNanH.
A further experiment concerns the target PmST1 (Pasteurella multocida, UniProt Q15KI8). Put plainly: Sialidase inhibition assay (Example 4). The class given is biochemical. To be noted: 0.1 mM of each inhibitor; substrate Neu5Acα2-3GalβpNP 0.3 mM; pH 5.5; read-out: Percentage inhibition (%) against PmST1. As for the experimental part:
as §1, §2

The target of a further experiment is VcSialidase (Vibrio cholerae serotype O1, UniProt P0C6E9). Put plainly: biochemical. The following applies: pH 5.5, read-out: Percentage inhibition (%) against VcSialidase, 0.1 mM of each inhibitor, substrate Neu5Acα2-3GalβpNP 0.3 mM.
Sequence of VcSialidase (P0C6E9 25-781): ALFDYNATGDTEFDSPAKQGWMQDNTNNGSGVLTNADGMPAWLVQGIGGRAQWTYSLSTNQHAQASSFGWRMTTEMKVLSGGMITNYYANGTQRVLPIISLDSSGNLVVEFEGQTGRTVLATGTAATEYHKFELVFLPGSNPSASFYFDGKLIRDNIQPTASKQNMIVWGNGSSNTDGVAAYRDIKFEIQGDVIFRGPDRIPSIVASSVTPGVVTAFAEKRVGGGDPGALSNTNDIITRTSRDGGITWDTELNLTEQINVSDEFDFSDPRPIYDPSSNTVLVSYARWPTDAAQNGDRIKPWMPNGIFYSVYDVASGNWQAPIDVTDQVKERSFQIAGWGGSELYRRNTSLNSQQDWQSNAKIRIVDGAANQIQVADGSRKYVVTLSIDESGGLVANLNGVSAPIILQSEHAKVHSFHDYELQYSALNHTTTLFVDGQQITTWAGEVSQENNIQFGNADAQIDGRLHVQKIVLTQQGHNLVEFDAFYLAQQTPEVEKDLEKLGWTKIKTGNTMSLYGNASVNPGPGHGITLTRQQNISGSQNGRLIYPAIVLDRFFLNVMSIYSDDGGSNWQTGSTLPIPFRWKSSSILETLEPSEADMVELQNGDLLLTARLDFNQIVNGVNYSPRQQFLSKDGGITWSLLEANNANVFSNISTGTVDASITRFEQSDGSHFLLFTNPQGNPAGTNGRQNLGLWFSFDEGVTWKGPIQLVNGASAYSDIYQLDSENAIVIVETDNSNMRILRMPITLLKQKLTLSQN

Sequence of hNEU2 (Q9Y3R4 whole entry): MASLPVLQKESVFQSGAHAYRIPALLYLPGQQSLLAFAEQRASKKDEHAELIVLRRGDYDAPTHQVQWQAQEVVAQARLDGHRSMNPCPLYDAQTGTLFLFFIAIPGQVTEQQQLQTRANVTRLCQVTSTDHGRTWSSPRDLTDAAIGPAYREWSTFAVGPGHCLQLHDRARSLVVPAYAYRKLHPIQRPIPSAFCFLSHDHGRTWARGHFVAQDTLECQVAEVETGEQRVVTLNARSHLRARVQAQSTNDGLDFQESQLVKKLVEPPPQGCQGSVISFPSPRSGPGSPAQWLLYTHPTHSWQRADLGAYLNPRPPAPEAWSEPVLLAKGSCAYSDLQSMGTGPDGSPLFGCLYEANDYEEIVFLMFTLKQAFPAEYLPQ
Sequence of SpNanA (P62575 54-1006): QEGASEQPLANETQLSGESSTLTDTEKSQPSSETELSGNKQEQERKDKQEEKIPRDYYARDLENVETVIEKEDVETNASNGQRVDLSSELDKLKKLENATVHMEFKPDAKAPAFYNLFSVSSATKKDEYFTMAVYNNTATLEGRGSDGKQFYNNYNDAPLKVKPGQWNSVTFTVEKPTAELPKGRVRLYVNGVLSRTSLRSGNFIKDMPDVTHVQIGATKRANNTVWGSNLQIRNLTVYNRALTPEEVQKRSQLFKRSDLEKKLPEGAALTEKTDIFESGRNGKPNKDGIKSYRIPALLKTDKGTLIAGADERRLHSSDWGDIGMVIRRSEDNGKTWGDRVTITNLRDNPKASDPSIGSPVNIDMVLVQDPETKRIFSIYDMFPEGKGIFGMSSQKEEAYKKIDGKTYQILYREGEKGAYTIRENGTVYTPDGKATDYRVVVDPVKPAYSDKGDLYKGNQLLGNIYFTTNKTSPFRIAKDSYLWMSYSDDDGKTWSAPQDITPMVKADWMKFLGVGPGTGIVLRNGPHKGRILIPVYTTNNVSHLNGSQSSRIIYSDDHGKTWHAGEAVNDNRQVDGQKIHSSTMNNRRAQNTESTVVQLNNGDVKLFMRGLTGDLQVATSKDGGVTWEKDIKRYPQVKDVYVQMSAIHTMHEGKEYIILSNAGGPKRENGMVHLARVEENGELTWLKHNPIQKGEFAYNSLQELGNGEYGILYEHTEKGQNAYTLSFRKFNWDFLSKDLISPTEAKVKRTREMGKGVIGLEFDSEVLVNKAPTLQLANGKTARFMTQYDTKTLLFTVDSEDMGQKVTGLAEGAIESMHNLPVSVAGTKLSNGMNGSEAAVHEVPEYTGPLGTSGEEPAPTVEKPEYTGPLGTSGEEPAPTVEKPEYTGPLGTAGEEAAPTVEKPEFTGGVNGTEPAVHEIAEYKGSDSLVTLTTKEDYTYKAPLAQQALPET
Sequence of CpNanH (P10481 whole entry, looked up): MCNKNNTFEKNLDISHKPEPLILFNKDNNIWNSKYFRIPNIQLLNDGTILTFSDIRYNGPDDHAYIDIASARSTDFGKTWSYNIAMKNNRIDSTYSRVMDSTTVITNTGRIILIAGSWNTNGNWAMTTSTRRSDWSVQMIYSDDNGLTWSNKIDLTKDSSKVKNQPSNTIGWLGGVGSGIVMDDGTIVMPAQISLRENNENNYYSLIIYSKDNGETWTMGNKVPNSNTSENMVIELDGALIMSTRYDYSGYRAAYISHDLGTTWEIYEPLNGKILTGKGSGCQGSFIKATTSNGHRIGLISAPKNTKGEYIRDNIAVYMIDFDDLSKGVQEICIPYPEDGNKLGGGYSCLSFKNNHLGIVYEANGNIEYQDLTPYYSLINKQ
Sequence of PmST1 (Q15KI8 entry or part of it): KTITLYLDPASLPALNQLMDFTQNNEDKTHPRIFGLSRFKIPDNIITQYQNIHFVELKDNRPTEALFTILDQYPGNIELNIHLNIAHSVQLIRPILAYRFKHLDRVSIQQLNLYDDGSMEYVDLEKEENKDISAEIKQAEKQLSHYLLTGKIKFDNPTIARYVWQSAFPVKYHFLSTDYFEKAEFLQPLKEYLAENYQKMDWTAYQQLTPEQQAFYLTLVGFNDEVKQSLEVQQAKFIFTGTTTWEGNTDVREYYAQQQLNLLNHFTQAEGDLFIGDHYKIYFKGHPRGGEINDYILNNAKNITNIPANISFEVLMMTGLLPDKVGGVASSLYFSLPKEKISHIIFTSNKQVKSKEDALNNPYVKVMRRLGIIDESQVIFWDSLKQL
Sequence of SpNanB (Q54727 30-697 S59P/E68D/N393D/K536E/K577E): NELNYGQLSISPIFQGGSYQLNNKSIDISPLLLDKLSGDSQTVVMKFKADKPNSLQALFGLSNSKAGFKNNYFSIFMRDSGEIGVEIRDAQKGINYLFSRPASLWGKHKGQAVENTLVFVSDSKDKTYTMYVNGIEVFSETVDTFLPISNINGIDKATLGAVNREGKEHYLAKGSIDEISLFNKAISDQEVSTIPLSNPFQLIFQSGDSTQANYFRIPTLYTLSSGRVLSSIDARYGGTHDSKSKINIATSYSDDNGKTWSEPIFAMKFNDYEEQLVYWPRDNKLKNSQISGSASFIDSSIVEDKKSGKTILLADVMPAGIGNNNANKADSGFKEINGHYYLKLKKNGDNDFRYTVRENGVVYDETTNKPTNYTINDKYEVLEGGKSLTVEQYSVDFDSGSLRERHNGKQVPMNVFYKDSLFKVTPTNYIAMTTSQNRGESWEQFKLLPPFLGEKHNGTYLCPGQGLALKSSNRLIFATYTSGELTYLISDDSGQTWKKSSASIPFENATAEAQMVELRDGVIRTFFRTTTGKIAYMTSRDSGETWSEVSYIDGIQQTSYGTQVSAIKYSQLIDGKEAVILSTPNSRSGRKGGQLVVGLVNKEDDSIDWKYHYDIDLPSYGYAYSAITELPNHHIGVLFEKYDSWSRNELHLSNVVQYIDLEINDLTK
Sequence of BiNanH2 (A0ACD7UU12 entry or part of it): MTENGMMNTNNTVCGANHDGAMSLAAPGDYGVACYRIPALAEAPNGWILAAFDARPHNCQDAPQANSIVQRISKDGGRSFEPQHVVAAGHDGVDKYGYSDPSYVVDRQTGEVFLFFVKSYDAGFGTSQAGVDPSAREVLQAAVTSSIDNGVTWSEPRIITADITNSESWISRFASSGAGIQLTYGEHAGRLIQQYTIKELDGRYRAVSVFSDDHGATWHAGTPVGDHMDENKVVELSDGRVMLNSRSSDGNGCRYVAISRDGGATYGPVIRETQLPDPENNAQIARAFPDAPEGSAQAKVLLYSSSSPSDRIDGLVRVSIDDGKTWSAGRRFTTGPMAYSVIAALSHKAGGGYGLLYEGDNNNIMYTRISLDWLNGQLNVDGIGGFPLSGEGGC
Sequence of SpNanC (A0A0H2UQE4 entry or part of it): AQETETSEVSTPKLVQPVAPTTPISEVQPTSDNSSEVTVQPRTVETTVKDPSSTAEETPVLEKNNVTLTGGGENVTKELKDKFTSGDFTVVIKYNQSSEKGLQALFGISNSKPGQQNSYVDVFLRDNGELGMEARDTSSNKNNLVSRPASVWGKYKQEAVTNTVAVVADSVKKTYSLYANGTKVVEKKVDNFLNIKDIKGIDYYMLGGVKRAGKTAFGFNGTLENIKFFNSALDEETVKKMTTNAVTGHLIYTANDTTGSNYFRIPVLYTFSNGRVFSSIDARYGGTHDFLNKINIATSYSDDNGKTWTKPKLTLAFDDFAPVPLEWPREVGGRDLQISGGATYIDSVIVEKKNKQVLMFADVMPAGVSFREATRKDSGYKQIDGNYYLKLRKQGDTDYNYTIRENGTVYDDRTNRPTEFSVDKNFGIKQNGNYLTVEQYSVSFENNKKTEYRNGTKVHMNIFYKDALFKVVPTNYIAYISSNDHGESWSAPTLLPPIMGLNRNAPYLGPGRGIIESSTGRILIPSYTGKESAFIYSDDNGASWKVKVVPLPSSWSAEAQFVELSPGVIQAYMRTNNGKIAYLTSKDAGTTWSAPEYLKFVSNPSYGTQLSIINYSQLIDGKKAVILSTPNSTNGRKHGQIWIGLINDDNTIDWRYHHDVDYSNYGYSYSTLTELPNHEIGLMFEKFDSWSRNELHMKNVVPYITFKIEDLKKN

For orientation: inhibition means how much of the control response was suppressed. Turning to `O=C(CO)N[C@@H]1C(O)C=C(C(=O)O)OC1[C@H](O)[C@H](O)CO` (stereo partly drawn) [compound 7, 2,6-Anhydro-3,5-dideoxy-5-glycolylamido-D-glycero-D-galacto-non-2-enonic acid], the inhibition at 100 µM on hNEU2 is above 50%; on BiNanH2, 19%; at SpNanA it was 14%; on AuSialidase, 47%; on SpNanC it was 17%; at SpNanB, 4%. Moreover, the inhibition at 100 µM came to 9% at CpNanH and 2% on PmST1. Also, the “Percentage inhibition (%) against CpNanI” value in the experiment with CpNanI amounted to 20%.
Broadly, the IC50 is the point on the concentration scale where inhibition reaches its midpoint. High values mean weaker potency, low ones greater potency. As for `CC(=O)NC[C@@H](O)[C@@H](O)[C@@H]1OC(C(=O)O)=C[C@H](O)[C@H]1NC(C)=O` [compound 9, 5,9-Diacetamido-2,6-anhydro-3,5,9-trideoxy-D-glycero-D-galacto-non-2-enonic acid], the inhibition at 100 µM at hNEU2 was 27%; on BiNanH2 it was 69%; at SpNanA, 86%; on AuSialidase it was 60%; on SpNanC, 8%; at SpNanB, 4%. Further, the results for the inhibition at 100 µM on VcSialidase, at CpNanH and at PmST1 were 45%, 1% and 19%, respectively. On SpNanA, this compound registered a concentration for half-maximal inhibition (IC50) of 11 ± 0.2 µM. Further, in the experiment with CpNanI, the “Percentage inhibition (%) against CpNanI” value came out at 63%.
With `CC(=O)N[C@@H]1C(O)C=C(C(=O)O)OC1C[C@H](O)CO` (stereo partly drawn) [compound 10, 5-Acetamido-2,6-anhydro-3,5,7-trideoxy-D-glycero-D-galacto-non-2-enonic acid], the inhibition at 100 µM on hNEU2 is 42%; on BiNanH2 it was 30%; at SpNanA, 89%; at AuSialidase, 85%; on SpNanC, 5%; at SpNanB it was 2%. In addition, the inhibition at 100 µM on VcSialidase was 40%; on CpNanH, 11%; at PmST1 it was 15%. At SpNanA, this compound registered an IC50 of 10.7 ± 0.4 µM. Further, in the experiment with CpNanI, the “Percentage inhibition (%) against CpNanI” value is 57%.
On to `CCCCC(=O)NC[C@@H](O)[C@@H](O)[C@@H]1OC(C(=O)O)=C[C@H](O)[C@H]1NC(C)=O` [compound 12, 5-Acetamido-2,6-anhydro-3,5,9-trideoxy-9-valeramido-D-glycero-D-galacto-non-2-enonic acid], for which the inhibition at 100 µM on hNEU2 amounted to 19%; at BiNanH2 it was 71%; at SpNanA, 85%; on AuSialidase, 40%; at SpNanC, 11%; at SpNanB, 3%. The inhibition at 100 µM on VcSialidase worked out at 43%; on CpNanH, 3%; on PmST1 it was 8%. At SpNanA, this compound came in with a 50% inhibitory concentration (IC50) of 10.5 ± 0.5 µM. In addition, the “Percentage inhibition (%) against CpNanI” value in the experiment on CpNanI came out at 40%.
On to `CC(=O)N[C@@H]1C(O)C=C(C(=O)O)OC1[C@H](O)[C@H](O)CNC(=O)C1CC1` (stereo partly drawn) [compound 13, 5-Acetamido-2,6-anhydro-9-cyclopropylcarboxamido-3,5,9-trideoxy-D-glycero-D-galacto-non-2-enonic acid], for which the inhibition at 100 µM came out at 17% at hNEU2; 78% on BiNanH2; 91% on SpNanA; 61% on AuSialidase; 16% at SpNanC; 2% on SpNanB. Moreover, the inhibition at 100 µM is 40% on VcSialidase, 7% on CpNanH and 3% at PmST1. The compound further gave a half-inhibitory concentration (IC50) against SpNanA of 6.8 ± 0.2 µM. The “Percentage inhibition (%) against CpNanI” value with CpNanI stood at 51%.
Turning to `O=C(Cc1ccccc1)N[C@H]1[C@H]([C@H](O)[C@H](O)CO)OC(C(=O)O)=C[C@@H]1O` [compound 15, 2,6-Anhydro-3,5-dideoxy-5-phenylacetamido-D-glycero-D-galacto-non-2-enonic acid], the inhibition at 100 µM is 81% at hNEU2; 17% on BiNanH2; 2% at SpNanA; 13% on AuSialidase; 12% on SpNanC; 5% on SpNanB. For the same compound, the inhibition at 100 µM at VcSialidase was determined as 5%; on CpNanH, 8%; on PmST1, 8%. In the experiment on CpNanI, the “Percentage inhibition (%) against CpNanI” value worked out at 19%.
